In ChEMBL document CHEMBL3244053, “Structural modification study of bis(substituted aminoalkylamino)anthraquinones. An evaluation of the relationship of the [2-[(2-hydroxyethyl)amino]ethyl]amino side chain with antineoplastic activity” (1979):
Calls of active or inactive are those of the source. The calls are words filed in the database; no cut-off is given here.

Columns and labels:
Colon 26 [1] = assay: Antineoplastic activity against mouse Colon 26 cells allografted in CDF1 mouse assessed as survival at 20 mg/kg qd for 9 days; assay type: functional, organism-based; set-up: dose 20 mg/kg
B16 [2] = assay: Antineoplastic activity against mouse B16 cells allografted in BDF1 mouse assessed as survival at 10 mg/kg qd for 9 days; assay type: functional, organism-based; set-up: dose 10 mg/kg
B16 [3] = assay: Antineoplastic activity against mouse B16 cells allografted in BDF1 mouse at 80 mg/kg qd for 9 days relative to control; assay type: functional
L1210 [4] = assay: Antineoplastic activity against mouse L1210 cells allografted in CDF1 mouse at 30 mg/kg qd for 9 days relative to control; assay type: functional
Colon 26 [5] = assay: Antineoplastic activity against mouse Colon 26 cells allografted in CDF1 mouse at 20 mg/kg qd for 9 days relative to control; assay type: functional
P388 [6] = assay: Antineoplastic activity against mouse P388 cells allografted in CDF1 mouse at 40 mg/kg qd for 9 days relative to control; assay type: functional
L1210 [7] = assay: Antineoplastic activity against mouse L1210 cells allografted in CDF1 mouse assessed as survival at 15 mg/kg qd for 9 days; assay type: functional, organism-based; set-up: dose 15 mg/kg
B16 [8] = assay: Antineoplastic activity against mouse B16 cells allografted in BDF1 mouse at 40 mg/kg qd for 9 days relative to control; assay type: functional
P388 [9] = assay: Antineoplastic activity against mouse P388 cells allografted in CDF1 mouse at 10 mg/kg qd for 9 days relative to control; assay type: functional
P388 [10] = assay: Antineoplastic activity against mouse P388 cells allografted in CDF1 mouse assessed as survival at 5 mg/kg qd for 9 days; assay type: functional, organism-based; set-up: dose 5 mg/kg
P388 [11] = assay: Antineoplastic activity against mouse P388 cells allografted in CDF1 mouse at 5 mg/kg qd for 9 days relative to control; assay type: functional
B16 [12] = assay: Antineoplastic activity against mouse B16 cells allografted in BDF1 mouse at 20 mg/kg qd for 9 days relative to control; assay type: functional
P388 [13] = assay: Antineoplastic activity against mouse P388 cells allografted in CDF1 mouse assessed as survival at 40 mg/kg qd for 9 days; assay type: functional, organism-based; set-up: dose 40 mg/kg
B16 [14] = assay: Antineoplastic activity against mouse B16 cells allografted in BDF1 mouse assessed as survival at 80 mg/kg qd for 9 days; assay type: functional, organism-based; set-up: dose 80 mg/kg
Colon 26 [15] = assay: Antineoplastic activity against mouse Colon 26 cells allografted in CDF1 mouse at 10 mg/kg qd for 9 days relative to control; assay type: functional
P388 [16] = assay: Antineoplastic activity against mouse P388 cells allografted in CDF1 mouse assessed as survival at 20 mg/kg qd for 9 days; assay type: functional, organism-based; set-up: dose 20 mg/kg
B16 [17] = assay: Antineoplastic activity against mouse B16 cells allografted in BDF1 mouse assessed as survival at 20 mg/kg qd for 9 days; assay type: functional, organism-based; set-up: dose 20 mg/kg
B16 [18] = assay: Antineoplastic activity against mouse B16 cells allografted in BDF1 mouse at 10 mg/kg qd for 9 days relative to control; assay type: functional
L1210 [19] = assay: Antineoplastic activity against mouse L1210 cells allografted in CDF1 mouse at 15 mg/kg qd for 9 days relative to control; assay type: functional
P388 [20] = assay: Antineoplastic activity against mouse P388 cells allografted in CDF1 mouse assessed as survival at 10 mg/kg qd for 9 days; assay type: functional, organism-based; set-up: dose 10 mg/kg
B16 [21] = assay: Antineoplastic activity against mouse B16 cells allografted in BDF1 mouse assessed as survival at 40 mg/kg qd for 9 days; assay type: functional, organism-based; set-up: dose 40 mg/kg
P388 [22] = assay: Antineoplastic activity against mouse P388 cells allografted in CDF1 mouse at 20 mg/kg qd for 9 days relative to control; assay type: functional
P388 [23] = assay: Antineoplastic activity against mouse P388 cells allografted in CDF1 mouse at 6.25 mg/kg qd for 9 days relative to control; assay type: functional
P388 [24] = assay: Antineoplastic activity against mouse P388 cells allografted in CDF1 mouse assessed as survival at 6.25 mg/kg qd for 9 days; assay type: functional, organism-based; set-up: dose 6.25 mg/kg
P388 [25] = assay: Antineoplastic activity against mouse P388 cells allografted in CDF1 mouse assessed as survival at 12.5 mg/kg qd for 9 days; assay type: functional, organism-based; set-up: dose 12.5 mg/kg
P388 [26] = assay: Antineoplastic activity against mouse P388 cells allografted in CDF1 mouse at 12.5 mg/kg qd for 9 days relative to control; assay type: functional
B16 [27] = assay: Antineoplastic activity against mouse B16 cells allografted in BDF1 mouse at 100 mg/kg qd for 9 days relative to control; assay type: functional
P388 [28] = assay: Antineoplastic activity against mouse P388 cells allografted in CDF1 mouse at 100 mg/kg qd for 9 days relative to control; assay type: functional
B16 [29] = assay: Antineoplastic activity against mouse B16 cells allografted in BDF1 mouse assessed as survival at 25 mg/kg qd for 9 days; assay type: functional, organism-based; set-up: dose 25 mg/kg
P388 [30] = assay: Antineoplastic activity against mouse P388 cells allografted in CDF1 mouse assessed as survival at 50 mg/kg qd for 9 days; assay type: functional, organism-based; set-up: dose 50 mg/kg
B16 [31] = assay: Antineoplastic activity against mouse B16 cells allografted in BDF1 mouse at 25 mg/kg qd for 9 days relative to control; assay type: functional
P388 [32] = assay: Antineoplastic activity against mouse P388 cells allografted in CDF1 mouse assessed as survival at 100 mg/kg qd for 9 days; assay type: functional, organism-based; set-up: dose 100 mg/kg
P388 [33] = assay: Antineoplastic activity against mouse P388 cells allografted in CDF1 mouse at 50 mg/kg qd for 9 days relative to control; assay type: functional
B16 [34] = assay: Antineoplastic activity against mouse B16 cells allografted in BDF1 mouse assessed as survival at 100 mg/kg qd for 9 days; assay type: functional, organism-based; set-up: dose 100 mg/kg
B16 [35] = assay: Antineoplastic activity against mouse B16 cells allografted in BDF1 mouse at 50 mg/kg qd for 9 days relative to control; assay type: functional
P388 [36] = assay: Antineoplastic activity against mouse P388 cells allografted in CDF1 mouse at 80 mg/kg qd for 9 days relative to control; assay type: functional
P388 [37] = assay: Antineoplastic activity against mouse P388 cells allografted in CDF1 mouse at 30 mg/kg qd for 9 days relative to control; assay type: functional
B16 [38] = assay: Antineoplastic activity against mouse B16 cells allografted in BDF1 mouse at 200 mg/kg qd for 9 days relative to control; assay type: functional
B16 [39] = assay: Antineoplastic activity against mouse B16 cells allografted in BDF1 mouse assessed as survival at 50 mg/kg qd for 9 days; assay type: functional, organism-based; set-up: dose 50 mg/kg
Colon 26 [40] = assay: Antineoplastic activity against mouse Colon 26 cells allografted in CDF1 mouse assessed as survival at 40 mg/kg qd for 9 days; assay type: functional, organism-based; set-up: dose 40 mg/kg
Colon 26 [41] = assay: Antineoplastic activity against mouse Colon 26 cells allografted in CDF1 mouse at 80 mg/kg qd for 9 days relative to control; assay type: functional
P388 [42] = assay: Antineoplastic activity against mouse P388 cells allografted in CDF1 mouse assessed as survival at 80 mg/kg qd for 9 days; assay type: functional, organism-based; set-up: dose 80 mg/kg
L1210 [43] = assay: Antineoplastic activity against mouse L1210 cells allografted in CDF1 mouse at 40 mg/kg qd for 9 days relative to control; assay type: functional
L1210 [44] = assay: Antineoplastic activity against mouse L1210 cells allografted in CDF1 mouse assessed as survival at 160 mg/kg qd for 9 days; assay type: functional, organism-based; set-up: dose 160 mg/kg
L1210 [45] = assay: Antineoplastic activity against mouse L1210 cells allografted in CDF1 mouse assessed as survival at 40 mg/kg qd for 9 days; assay type: functional, organism-based; set-up: dose 40 mg/kg
L1210 [46] = assay: Antineoplastic activity against mouse L1210 cells allografted in CDF1 mouse at 80 mg/kg qd for 9 days relative to control; assay type: functional
L1210 [47] = assay: Antineoplastic activity against mouse L1210 cells allografted in CDF1 mouse assessed as survival at 80 mg/kg qd for 9 days; assay type: functional, organism-based; set-up: dose 80 mg/kg
P388 [48] = assay: Antineoplastic activity against mouse P388 cells allografted in CDF1 mouse assessed as survival at 30 mg/kg qd for 9 days; assay type: functional, organism-based; set-up: dose 30 mg/kg
L1210 [49] = assay: Antineoplastic activity against mouse L1210 cells allografted in CDF1 mouse at 160 mg/kg qd for 9 days relative to control; assay type: functional
Colon 26 [50] = assay: Antineoplastic activity against mouse Colon 26 cells allografted in CDF1 mouse at 40 mg/kg qd for 9 days relative to control; assay type: functional
Colon 26 [51] = assay: Antineoplastic activity against mouse Colon 26 cells allografted in CDF1 mouse assessed as survival at 80 mg/kg qd for 9 days; assay type: functional, organism-based; set-up: dose 80 mg/kg
B16 [52] = assay: Antineoplastic activity against mouse B16 cells allografted in BDF1 mouse assessed as survival at 200 mg/kg qd for 9 days; assay type: functional, organism-based; set-up: dose 200 mg/kg

Which Activity (Colon 26 [1]) does the source give for `CN(C)CCNc1ccc(NCCN(C)C)c2c1C(=O)c1ccccc1C2=O` here?
Its Activity is “Active”.

What about the Activity (B16 [2]) of the same compound?
Its Activity is “Active”.

And the T/C (B16 [3])?
The T/C was 146%.

And the T/C (L1210 [4])?
The T/C was 150%.

What about the T/C (Colon 26 [5]) of the same compound?
Its T/C is 113%.

What about the T/C (P388 [6]) of the same compound?
The T/C was 202%.

And the Activity (L1210 [7])?
The Activity was “Active”.

And the T/C (B16 [8])?
Its T/C is 148%.

What about the T/C (P388 [9]) of the same compound?
Its T/C is 149%.

What about the Activity (P388 [10]) of the same compound?
Its Activity is “Active”.

And the T/C (P388 [11])?
The T/C was 133%.

And the T/C (B16 [12])?
The T/C was 142%.

And the Activity (P388 [13])?
The Activity was “Active”.

And the Activity (B16 [14])?
Its Activity is “Active”.

What about the T/C (Colon 26 [15]) of the same compound?
Its T/C is 123%.

What about the Activity (P388 [16]) of the same compound?
Its Activity is “Active”.

What about the Activity (B16 [17]) of the same compound?
The Activity was “Active”.

And the T/C (B16 [18])?
The T/C was 125%.

What about the T/C (L1210 [19]) of the same compound?
The T/C was 117%.

What about the Activity (P388 [20]) of the same compound?
Its Activity is “Active”.

And the Activity (B16 [21])?
Its Activity is “Active”.

What about the T/C (P388 [22]) of the same compound?
Its T/C is 163%.

How did the T/C (P388 [23]) turn out when `CN(C)CCC1=C(Cl)C(=O)c2ccccc2C1=O` was run?
The T/C was 94%.

And the Activity (P388 [24])?
Its Activity is “Active”.

What about the Activity (P388 [25]) of the same compound?
Its Activity is “Active”.

What about the T/C (P388 [26]) of the same compound?
The T/C was 97%.

`CCN(CC)CCC1=C(Cl)C(=O)c2ccccc2C1=O` was tested. Which T/C (P388 [23]) did it give?
Its T/C is 96%.

And the Activity (P388 [24])?
The Activity was “Active”.

What about the Activity (P388 [25]) of the same compound?
The Activity was “Active”.

And the T/C (P388 [26])?
The T/C was 101%.

`CN(C)CCOc1cccc2c1C(=O)c1ccccc1C2=O` was tested. Which T/C (B16 [27]) did it give?
Its T/C is 104%.

And the T/C (P388 [28])?
The T/C was 109%.

And the Activity (B16 [29])?
Its Activity is “Active”.

And the Activity (P388 [30])?
The Activity was “Active”.

And the T/C (B16 [31])?
The T/C was 93%.

What about the Activity (P388 [32]) of the same compound?
The Activity was “Active”.

What about the T/C (P388 [33]) of the same compound?
The T/C was 107%.

What about the Activity (B16 [34]) of the same compound?
Its Activity is “Active”.

And the T/C (B16 [35])?
The T/C was 97%.

Which results are given for `CN(C)CCNc1ccc(O)c2c1C(=O)c1ccccc1C2=O`?
T/C (P388 [36]): 153%; T/C (P388 [37]): 100%; Activity (Colon 26 [1]): Active; T/C (B16 [38]): 156%; Activity (B16 [39]): Active; Activity (Colon 26 [40]): Active; T/C (Colon 26 [41]): 115%; Activity (P388 [42]): Active; T/C (L1210 [43]): 107%; T/C (Colon 26 [5]): 104%; T/C (P388 [6]): 124%; T/C (B16 [27]): 145%; Activity (L1210 [44]): Active; Activity (P388 [13]): Active; Activity (L1210 [45]): Active; T/C (L1210 [46]): 122%; Activity (L1210 [47]): Active; Activity (P388 [48]): Active; T/C (L1210 [49]): 139%; T/C (Colon 26 [50]): 135%; Activity (Colon 26 [51]): Active; Activity (B16 [34]): Active; T/C (B16 [35]): 110%; Activity (B16 [52]): Active
